Reference: EP0326526A1, “Aminoketones of substituted dibenzo- and pyridobenzo-azepinones and pharmaceutical compositions” (ISTITUTO DE ANGELI S.p.A., priority 1988, dated 1989)

What was measured:
[1] = target: T1, M₁ muscarinic receptors (cerebral cortex) (Rattus norvegicus, UniProt P08482); test: Muscarinic M₁ receptor binding: displacement of ³H-pirenzepine from cerebral cortex homogenate; set-up: species or system male CD-COOBBS rats; details: competition against 0.5 nM ³H-pirenzepine, 45 min at 30°C, read-out: IN VITRO RECEPTOR BINDING TEST KD M₁ (cortex)
T1 construct: displacement of ³H-pirenzepine from cerebral cortex homogenate; from tissue; host or cells: rat cerebral cortex homogenate
T1 sequence (P08482 1-460): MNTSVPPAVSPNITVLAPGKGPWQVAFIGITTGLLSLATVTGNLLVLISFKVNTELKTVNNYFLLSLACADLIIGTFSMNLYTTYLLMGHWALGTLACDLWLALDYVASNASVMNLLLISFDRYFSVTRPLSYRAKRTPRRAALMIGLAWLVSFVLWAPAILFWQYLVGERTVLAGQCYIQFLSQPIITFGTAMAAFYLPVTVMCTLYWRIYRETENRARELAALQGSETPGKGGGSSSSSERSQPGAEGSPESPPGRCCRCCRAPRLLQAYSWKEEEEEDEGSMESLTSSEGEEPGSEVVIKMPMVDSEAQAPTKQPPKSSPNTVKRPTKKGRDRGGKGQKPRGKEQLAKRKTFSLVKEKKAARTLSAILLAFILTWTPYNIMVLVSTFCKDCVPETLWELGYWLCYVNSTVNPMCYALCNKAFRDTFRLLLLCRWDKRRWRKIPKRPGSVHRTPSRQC
Experimental: (§1) Antimuscarinic activity and selectivity were examined in vitro by receptor binding studies in two tissues endowed with M₁ and M₂ muscarinic receptors (cerebral cortex, heart) and in vivo by studying the acid secretion and pepsin inhibition (M₁ response) in comparison with the cardiac and mydriatic effects (M₂ response) in conscious dogs equipped with cronic gastric fistula.
Muscarinic M₁ activity was determined by studying the displacement of ³H-pirenzepine from cerebral cortex homogenate according to the procedure reported below: The cerebral cortex donors were male CD-COOBBS rats, 220-250 g body weight. The homogenization process was carried out in a Potter-Evelhjem apparatus in the presence of Na⁺/Mg⁺⁺ HEPES buffer; pH 7.4 (100 mM NaCl, 10 mM MgCl₂, 20 mM HEPES); by filtering the suspension through two layers of cheesecloth. Binding curves for the under study compounds were derived indirectly from competition experiments against 0.5 nM ³H-pirenzepine labelling the muscarinic receptors of the cerebral cortex. 1 ml of the homogenate was incubated for 45 min at 30°C in the presence of a marker ligand and dif ferent concentrations of the cold ligand, conditions under which equilibrium was reached as determined by appropriate association experiments. The incubation was termination by centrifugation (12,000 rpm for 3 min) at room temperature using an Eppendorf microcentrifuge. The resultant pellet was washed twice with 1.5 ml saline to remove the free radioactivity and the final pellet was allowed to drain. The tips of the tubes containing the pellet were cut off and 200µl of tissue subilizer (Lumasolve, Lumac) were added and left to stand overnight. Radioactivity was then counted after addition of 4 ml of liquid scintillation mixture (Dimilume/Toluene 1:10 v:v, Packard).
Assays were carried out in triplicate or quadruplicate and the non-specific binding was defined as the radioactivity bound or entrapped in the pellet when the incubation medium contained 1 µM atropine sulphate. Non-specific binding avaraged less then 30%. […]

[2] = target: T2, M₂ muscarinic receptors (heart) (Rattus norvegicus, UniProt P10980); test: Muscarinic M₂ receptor binding: displacement of ³H-NMS from total heart homogenate; details: read-out: IN VITRO RECEPTOR BINDING TEST KD M₂ (heart)
T2 construct: displacement of ³H-NMS from total heart homogenate; from tissue; rat inferred
T2 sequence (P10980 1-466): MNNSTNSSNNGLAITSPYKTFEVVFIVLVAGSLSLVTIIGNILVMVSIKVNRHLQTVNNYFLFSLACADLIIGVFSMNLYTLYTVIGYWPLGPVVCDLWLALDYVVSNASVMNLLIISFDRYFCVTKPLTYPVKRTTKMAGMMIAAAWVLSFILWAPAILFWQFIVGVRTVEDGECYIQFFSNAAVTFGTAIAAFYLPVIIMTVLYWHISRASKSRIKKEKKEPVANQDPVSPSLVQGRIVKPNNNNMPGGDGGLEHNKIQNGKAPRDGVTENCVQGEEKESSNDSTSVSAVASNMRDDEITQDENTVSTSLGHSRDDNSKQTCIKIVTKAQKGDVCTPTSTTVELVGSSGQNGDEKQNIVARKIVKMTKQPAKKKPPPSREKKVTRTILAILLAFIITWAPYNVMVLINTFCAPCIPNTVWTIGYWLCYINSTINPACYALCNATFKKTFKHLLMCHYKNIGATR

[3] = test system: conscious dogs equipped with cronic gastric fistula; test: Conscious gastric fistula dog in vivo: 2-DG-elicited gastric secretion, heart rate and pupil diameter; set-up: species or system male Beagle dogs; details: cumulative i.v. dosing; for Heart rate ED₅₀ (beats/min): dose increasing heart rate by 50 beats per min; for ED₅₀ (agonist 2-DG*) Acid output: dose inhibiting 50% acid output; for ED₅₀ (agonist 2-DG*) Acid output / ED₅₀ (agonist 2-DG*) Pepsin output: secretion elicited by 2-deoxy-D-glucose 100 mg/kg i.v.; for ED₅₀ (agonist 2-DG*) Pepsin output: dose inhibiting 50% pepsin output; for Dose doubling pupil diameter: dose which at least doubled the initial pupil diameter
Experimental: as §1
Studies were performed in 5 male Beagle dogs (15-22 Kg) with well established gastric fistula. Gastric secretion was elicited by 2-deoxy-D-glucose (2-DG) (100 mg/kg, infused intravenously in 10 min), and collected by gravity drainage at 15 min intervals. […] Each sample was measured for volume (to the nearest 0.1 ml) and acidity (titration of 1 ml sample to pH 7 with NaOH 0.1 N by means of an automatic titrator ITT Radiometer PHM 62); the pepsin content in each 15 min sample was determined on 0.1 ml of gastric juice (diluted 1:20 wich HCl 0.1 N), using the hemoglobin digestion method described by Anson (J.Gen. Phys. 22 ([…]) 79) and expressed in mU Anson.
The compounds were injected intravenously in a cumulative fashion, each dose being administered at 15 min intervals, starting after the peak response was reached. At each dose level, heart rate was measured by a cardiotachometer and pupil diameter scored under constant light. Doses inhibiting 50% (ED₅₀ and their 95% confidence limits) acid and pepsin output and maximal inhibition (I max), were obtained by fractional linear transformation of the data: D/I = aD+b, were D = dose of antagonist; I = % inhibition of acid or pepsin output; I max = 1/a; ED₅₀ = b/a. (Hirschowitz B.I. Am. J. Physiol. 216: 487-489 1969) Doses increasing heart rate by 50 beats per min (ED₅₀ and their 95% confidence limits) were evaluated by linear regression analysis of the data relating dose to effect.
Doses of compound which at least doubled the initial pupil diameter were also determined.

Row | SMILES | Kd [1] | Kd [2] | Heart rate ED₅₀ (beats/min) [3] | ED₅₀ (agonist 2-DG*) Acid output [3] | ED₅₀ (agonist 2-DG*) Pepsin output [3] | Dose doubling pupil diameter [3]
1 | CN1CCC(C(=O)C2c3ccccc3NC(=O)c3ccccc32)CC1 (stereo not drawn) [Compound 1, 6,11-dihydro-11-[(1-methyl-4-piperidinyl)-carbonyl]-5H-dibenz[b,e]-azepin-6-one] | 2.1 nM | 212 nM | 204 µg/kg i.v. | 6.2 µg/kg i.v. | 8.0 µg/kg i.v. | 512 µg/kg i.v.
2 | CN1CCC(C(=O)C2c3ccccc3C(=O)Nc3cccc(F)c32)CC1 (stereo not drawn) [Compound 4, 1-fluoro-6,11-dihydro-11-[(1-methyl-4-piperidinyl)-carbonyl]-5H-dibenz[b,e]-azepin-6-one] | 2.2 nM | 210 nM | 191 µg/kg i.v. | 6.1 µg/kg i.v. | 5.3 µg/kg i.v. | 512 µg/kg i.v.
3 | CN1CCC(C(=O)C2c3ccccc3C(=O)Nc3ccc(Cl)nc32)CC1 (stereo not drawn) [Compound 12, 2-chloro-6,11-dihydro-11-[(1-methyl-4-piperidinyl)-carbonyl]-5H-pyrido[2,3b]-benzazepin-6-one] | 3.15 nM | 279 nM | 78 µg/kg i.v. | 7.2 µg/kg i.v. | 6.3 µg/kg i.v. | 320 µg/kg i.v.
